Laboratory results as given in ChEMBL document CHEMBL4507317, “Data for DCP probe BAY-899” (2021).

How the values were obtained:
[1] = tested on: Tyrosine-protein kinase ABL1 (Homo sapiens), P00519 [Q252H]; conditions: Compound concentration 1000.0 nM
[2] = tested on: Tyrosine-protein kinase ABL1 (Homo sapiens), P00519 [Q252H]; conditions: Compound concentration 1000.0 nM; remark: listed apart in the source
[3] = target: RAC-beta serine/threonine-protein kinase (Homo sapiens) (UniProt P31751); conditions: Compound concentration 1000.0 nM
[4] = target: Aurora kinase A (Homo sapiens) (UniProt O14965); conditions: Compound concentration 1000.0 nM
[5] = target: Serine/threonine-protein kinase BRSK2 (Homo sapiens) (UniProt Q8IWQ3); conditions: Compound concentration 1000.0 nM
[6] = target: Tyrosine-protein kinase BTK (Homo sapiens) (UniProt Q06187); conditions: Compound concentration 1000.0 nM
[7] = target: Calcium/calmodulin-dependent protein kinase type 1G (Homo sapiens) (UniProt Q96NX5); conditions: Compound concentration 1000.0 nM
[8] = target: Cyclin-dependent kinase 9 (Homo sapiens) (UniProt P50750); conditions: Compound concentration 1000.0 nM
[9] = target: Macrophage colony-stimulating factor 1 receptor (Homo sapiens) (UniProt P07333); conditions: Compound concentration 1000.0 nM
[10] = target: Discoidin domain-containing receptor 2 (Homo sapiens) (UniProt Q16832); conditions: Compound concentration 1000.0 nM
[11] = tested on: Epidermal growth factor receptor (Homo sapiens), P00533 [UNDEFINED MUTATION]; conditions: Compound concentration 1000.0 nM
[12] = target: Ephrin type-A receptor 7 (Homo sapiens) (UniProt Q15375); conditions: Compound concentration 1000.0 nM
[13] = target: Ephrin type-B receptor 3 (Homo sapiens) (UniProt P54753); conditions: Compound concentration 1000.0 nM
[14] = target: Mitogen-activated protein kinase 7 (Homo sapiens) (UniProt Q13164); conditions: Compound concentration 1000.0 nM
[15] = tested on: Receptor-type tyrosine-protein kinase FLT3 (Homo sapiens), P36888 [D835H]; conditions: Compound concentration 1000.0 nM
[16] = target: G protein-coupled receptor kinase 4 (Homo sapiens) (UniProt P32298); conditions: Compound concentration 1000.0 nM
[17] = target: Glycogen synthase kinase-3 alpha (Homo sapiens) (UniProt P49840); conditions: Compound concentration 1000.0 nM
[18] = target: Serine/threonine-protein kinase haspin (Homo sapiens) (UniProt Q8TF76); conditions: Compound concentration 1000.0 nM
[19] = target: Homeodomain-interacting protein kinase 1 (Homo sapiens) (UniProt Q86Z02); conditions: Compound concentration 1000.0 nM
[20] = target: Tyrosine-protein kinase JAK2 (Homo sapiens) (UniProt O60674); conditions: Compound concentration 1000.0 nM
[21] = target: Leukocyte tyrosine kinase receptor (Homo sapiens) (UniProt P29376); conditions: Compound concentration 1000.0 nM
[22] = target: Dual specificity mitogen-activated protein kinase kinase 5 (Homo sapiens) (UniProt Q13163); conditions: Compound concentration 1000.0 nM
[23] = target: Mitogen-activated protein kinase kinase kinase 10 (Homo sapiens) (UniProt Q02779); conditions: Compound concentration 1000.0 nM
[24] = target: Macrophage-stimulating protein receptor (Homo sapiens) (UniProt Q04912); conditions: Compound concentration 1000.0 nM
[25] = target: Myosin-IIIb (Homo sapiens) (UniProt Q8WXR4); conditions: Compound concentration 1000.0 nM
[26] = target: Serine/threonine-protein kinase Nek10 (Homo sapiens) (UniProt Q6ZWH5); conditions: Compound concentration 1000.0 nM
[27] = target: Mitogen-activated protein kinase 12 (Homo sapiens) (UniProt P53778); conditions: Compound concentration 1000.0 nM
[28] = target: Calcium-dependent protein kinase 1 (Plasmodium falciparum) (UniProt P62344); conditions: Compound concentration 1000.0 nM
[29] = target: Phosphatidylinositol 3-kinase C2 domain-containing subunit gamma (Homo sapiens) (UniProt O75747); conditions: Compound concentration 1000.0 nM
[30] = target: Phosphatidylinositol 4-kinase beta (Homo sapiens) (UniProt Q9UBF8); conditions: Compound concentration 1000.0 nM
[31] = target: Serine/threonine-protein kinase RIO1 (Homo sapiens) (UniProt Q9BRS2); conditions: Compound concentration 1000.0 nM
[32] = target: Ribosomal protein S6 kinase alpha-1 (Homo sapiens) (UniProt Q15418); conditions: Compound concentration 1000.0 nM
[33] = target: Ribosomal protein S6 kinase alpha-6 (Homo sapiens) (UniProt Q9UK32); conditions: Compound concentration 1000.0 nM
[34] = target: STE20/SPS1-related proline-alanine-rich protein kinase (Homo sapiens) (UniProt Q9UEW8); conditions: Compound concentration 1000.0 nM
[35] = target: Serine/threonine-protein kinase TBK1 (Homo sapiens) (UniProt Q9UHD2); conditions: Compound concentration 1000.0 nM
[36] = target: BDNF/NT-3 growth factors receptor (Homo sapiens) (UniProt Q16620); conditions: Compound concentration 1000.0 nM
[37] = target: Serine/threonine-protein kinase 32C (Homo sapiens) (UniProt Q86UX6); conditions: Compound concentration 1000.0 nM
[38] = target: T1, 5-hydroxytryptamine receptor 1A (Homo sapiens) (UniProt P08908); conditions: Compound concentration 10.0 uM
T1 sequence (whole entry): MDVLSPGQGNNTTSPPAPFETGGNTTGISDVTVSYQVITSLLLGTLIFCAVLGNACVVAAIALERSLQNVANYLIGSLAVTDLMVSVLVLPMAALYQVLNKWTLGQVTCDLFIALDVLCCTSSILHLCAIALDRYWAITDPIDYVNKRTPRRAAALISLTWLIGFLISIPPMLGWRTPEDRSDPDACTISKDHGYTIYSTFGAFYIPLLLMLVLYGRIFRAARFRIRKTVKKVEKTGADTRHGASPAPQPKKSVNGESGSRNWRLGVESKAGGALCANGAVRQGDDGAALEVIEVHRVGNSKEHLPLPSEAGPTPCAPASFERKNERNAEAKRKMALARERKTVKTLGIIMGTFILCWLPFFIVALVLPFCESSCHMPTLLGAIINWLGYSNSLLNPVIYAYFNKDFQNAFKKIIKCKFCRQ

[39] = target: 5-hydroxytryptamine receptor 1B (Homo sapiens) (UniProt P28222); conditions: Compound concentration 10.0 uM
[40] = target: Beta-2 adrenergic receptor (Homo sapiens) (UniProt P07550); conditions: Compound concentration 10.0 uM
Sequence of Beta-2 adrenergic receptor (Homo sapiens) (P07550 whole entry, looked up): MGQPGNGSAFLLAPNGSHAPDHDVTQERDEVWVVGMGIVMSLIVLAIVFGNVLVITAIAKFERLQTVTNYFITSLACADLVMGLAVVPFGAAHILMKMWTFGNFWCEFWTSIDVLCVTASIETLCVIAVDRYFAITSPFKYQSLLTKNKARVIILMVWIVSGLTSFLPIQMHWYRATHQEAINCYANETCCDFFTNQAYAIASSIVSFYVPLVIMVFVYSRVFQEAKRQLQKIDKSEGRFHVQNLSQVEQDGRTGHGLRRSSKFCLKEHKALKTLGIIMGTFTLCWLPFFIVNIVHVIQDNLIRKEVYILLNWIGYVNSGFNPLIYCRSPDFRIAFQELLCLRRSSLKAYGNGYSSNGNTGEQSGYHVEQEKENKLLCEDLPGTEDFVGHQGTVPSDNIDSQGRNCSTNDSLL

Sequence of Cyclin-dependent kinase 9 (Homo sapiens) (P50750 whole entry): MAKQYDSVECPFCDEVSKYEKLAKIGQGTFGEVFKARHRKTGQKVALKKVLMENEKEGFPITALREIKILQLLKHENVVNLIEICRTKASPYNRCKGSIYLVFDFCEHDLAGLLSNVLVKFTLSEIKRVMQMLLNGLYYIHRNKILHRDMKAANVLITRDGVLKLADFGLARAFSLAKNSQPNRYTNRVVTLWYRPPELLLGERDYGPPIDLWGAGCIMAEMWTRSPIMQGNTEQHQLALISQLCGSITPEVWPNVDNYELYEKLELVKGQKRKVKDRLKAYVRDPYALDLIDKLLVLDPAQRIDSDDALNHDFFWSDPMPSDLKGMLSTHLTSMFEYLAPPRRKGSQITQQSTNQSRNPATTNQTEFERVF
Sequence of Myosin-IIIb (Homo sapiens) (Q8WXR4 whole entry): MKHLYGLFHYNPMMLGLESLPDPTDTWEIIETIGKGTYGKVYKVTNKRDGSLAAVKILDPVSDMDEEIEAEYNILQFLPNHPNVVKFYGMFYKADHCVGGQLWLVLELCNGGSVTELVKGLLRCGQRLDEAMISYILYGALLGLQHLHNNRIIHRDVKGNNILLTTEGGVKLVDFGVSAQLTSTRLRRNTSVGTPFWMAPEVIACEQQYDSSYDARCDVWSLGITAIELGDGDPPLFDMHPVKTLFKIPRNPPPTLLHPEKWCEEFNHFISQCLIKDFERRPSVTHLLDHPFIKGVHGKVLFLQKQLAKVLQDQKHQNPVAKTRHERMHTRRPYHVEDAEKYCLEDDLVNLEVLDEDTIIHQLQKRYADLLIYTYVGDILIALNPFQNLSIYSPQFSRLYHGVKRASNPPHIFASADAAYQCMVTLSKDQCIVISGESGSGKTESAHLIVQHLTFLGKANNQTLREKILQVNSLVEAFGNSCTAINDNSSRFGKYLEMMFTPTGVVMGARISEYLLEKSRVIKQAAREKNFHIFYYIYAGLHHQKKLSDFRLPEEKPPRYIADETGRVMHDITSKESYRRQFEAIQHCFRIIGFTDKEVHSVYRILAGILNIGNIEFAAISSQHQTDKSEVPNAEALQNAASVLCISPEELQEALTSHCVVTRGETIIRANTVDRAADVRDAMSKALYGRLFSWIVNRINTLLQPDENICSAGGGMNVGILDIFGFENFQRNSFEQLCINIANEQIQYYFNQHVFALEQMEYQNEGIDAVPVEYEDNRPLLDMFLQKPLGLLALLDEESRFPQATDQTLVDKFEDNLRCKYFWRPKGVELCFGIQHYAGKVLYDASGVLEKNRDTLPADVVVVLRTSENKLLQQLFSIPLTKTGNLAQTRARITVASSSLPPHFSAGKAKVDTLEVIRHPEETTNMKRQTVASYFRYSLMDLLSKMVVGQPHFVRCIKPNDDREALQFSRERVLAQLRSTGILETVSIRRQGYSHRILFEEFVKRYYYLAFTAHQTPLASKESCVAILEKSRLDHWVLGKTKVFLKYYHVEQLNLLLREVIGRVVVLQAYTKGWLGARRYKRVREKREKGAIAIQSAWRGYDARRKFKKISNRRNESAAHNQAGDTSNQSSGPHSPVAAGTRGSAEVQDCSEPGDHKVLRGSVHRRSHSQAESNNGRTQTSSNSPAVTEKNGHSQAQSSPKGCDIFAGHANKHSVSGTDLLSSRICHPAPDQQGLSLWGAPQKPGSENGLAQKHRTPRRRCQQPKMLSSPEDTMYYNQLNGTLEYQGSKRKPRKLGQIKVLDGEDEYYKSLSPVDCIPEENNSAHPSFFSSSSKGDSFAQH
Sequence of Glycogen synthase kinase-3 alpha (Homo sapiens) (P49840 2-483 limits assumed): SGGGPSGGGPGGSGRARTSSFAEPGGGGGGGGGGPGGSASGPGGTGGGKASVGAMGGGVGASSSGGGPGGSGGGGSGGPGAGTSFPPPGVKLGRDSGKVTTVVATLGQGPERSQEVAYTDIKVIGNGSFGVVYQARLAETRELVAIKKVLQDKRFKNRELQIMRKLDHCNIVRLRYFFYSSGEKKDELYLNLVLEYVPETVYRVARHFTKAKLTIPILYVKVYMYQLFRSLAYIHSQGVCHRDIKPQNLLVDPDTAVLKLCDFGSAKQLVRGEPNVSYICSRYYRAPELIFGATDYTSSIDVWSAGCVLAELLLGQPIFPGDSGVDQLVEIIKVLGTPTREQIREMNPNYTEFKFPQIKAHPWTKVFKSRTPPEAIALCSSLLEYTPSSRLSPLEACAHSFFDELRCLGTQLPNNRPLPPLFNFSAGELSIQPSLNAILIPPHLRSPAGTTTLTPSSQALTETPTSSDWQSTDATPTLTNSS
Sequence of Serine/threonine-protein kinase BRSK2 (Homo sapiens) (Q8IWQ3 whole entry): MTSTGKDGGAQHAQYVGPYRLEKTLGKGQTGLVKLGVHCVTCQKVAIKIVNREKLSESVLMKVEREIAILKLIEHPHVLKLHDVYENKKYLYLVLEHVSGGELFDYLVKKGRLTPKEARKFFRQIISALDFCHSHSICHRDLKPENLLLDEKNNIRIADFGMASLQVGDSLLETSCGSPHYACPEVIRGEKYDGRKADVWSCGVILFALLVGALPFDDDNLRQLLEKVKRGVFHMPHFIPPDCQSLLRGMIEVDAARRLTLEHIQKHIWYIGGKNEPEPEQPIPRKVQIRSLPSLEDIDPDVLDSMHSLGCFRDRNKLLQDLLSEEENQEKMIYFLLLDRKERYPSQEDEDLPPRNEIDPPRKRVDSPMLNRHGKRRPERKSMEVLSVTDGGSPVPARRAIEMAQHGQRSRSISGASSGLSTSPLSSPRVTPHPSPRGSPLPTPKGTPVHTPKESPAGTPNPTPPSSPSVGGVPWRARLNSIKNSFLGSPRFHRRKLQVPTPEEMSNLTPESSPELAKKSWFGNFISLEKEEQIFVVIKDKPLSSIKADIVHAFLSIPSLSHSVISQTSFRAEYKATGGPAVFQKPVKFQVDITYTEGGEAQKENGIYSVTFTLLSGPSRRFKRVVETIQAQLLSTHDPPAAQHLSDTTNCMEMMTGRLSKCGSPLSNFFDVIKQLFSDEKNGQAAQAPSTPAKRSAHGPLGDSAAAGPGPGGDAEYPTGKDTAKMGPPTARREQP
Sequence of Leukocyte tyrosine kinase receptor (Homo sapiens) (P29376 whole entry): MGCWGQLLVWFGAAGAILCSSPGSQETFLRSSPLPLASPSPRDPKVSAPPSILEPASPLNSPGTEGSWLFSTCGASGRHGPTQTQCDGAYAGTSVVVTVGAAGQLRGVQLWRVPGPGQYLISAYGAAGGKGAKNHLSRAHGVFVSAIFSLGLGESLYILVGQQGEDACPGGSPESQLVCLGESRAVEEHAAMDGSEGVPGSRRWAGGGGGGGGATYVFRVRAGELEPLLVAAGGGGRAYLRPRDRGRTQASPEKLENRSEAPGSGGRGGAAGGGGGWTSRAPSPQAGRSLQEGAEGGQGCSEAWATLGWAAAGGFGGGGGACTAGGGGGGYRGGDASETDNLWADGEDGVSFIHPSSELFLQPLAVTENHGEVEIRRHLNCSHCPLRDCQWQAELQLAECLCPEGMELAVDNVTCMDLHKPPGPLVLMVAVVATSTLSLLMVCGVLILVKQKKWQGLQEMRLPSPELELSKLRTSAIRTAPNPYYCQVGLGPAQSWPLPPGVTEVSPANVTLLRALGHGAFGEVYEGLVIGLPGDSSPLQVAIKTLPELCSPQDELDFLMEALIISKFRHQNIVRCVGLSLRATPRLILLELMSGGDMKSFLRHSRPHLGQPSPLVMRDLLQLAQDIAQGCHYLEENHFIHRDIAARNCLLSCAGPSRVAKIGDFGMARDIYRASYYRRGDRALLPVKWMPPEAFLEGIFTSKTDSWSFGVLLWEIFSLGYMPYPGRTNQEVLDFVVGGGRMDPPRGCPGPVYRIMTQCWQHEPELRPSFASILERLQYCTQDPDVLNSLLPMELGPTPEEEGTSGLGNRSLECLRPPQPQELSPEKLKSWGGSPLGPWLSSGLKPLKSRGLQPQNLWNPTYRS
Sequence of RAC-beta serine/threonine-protein kinase (Homo sapiens) (P31751 whole entry): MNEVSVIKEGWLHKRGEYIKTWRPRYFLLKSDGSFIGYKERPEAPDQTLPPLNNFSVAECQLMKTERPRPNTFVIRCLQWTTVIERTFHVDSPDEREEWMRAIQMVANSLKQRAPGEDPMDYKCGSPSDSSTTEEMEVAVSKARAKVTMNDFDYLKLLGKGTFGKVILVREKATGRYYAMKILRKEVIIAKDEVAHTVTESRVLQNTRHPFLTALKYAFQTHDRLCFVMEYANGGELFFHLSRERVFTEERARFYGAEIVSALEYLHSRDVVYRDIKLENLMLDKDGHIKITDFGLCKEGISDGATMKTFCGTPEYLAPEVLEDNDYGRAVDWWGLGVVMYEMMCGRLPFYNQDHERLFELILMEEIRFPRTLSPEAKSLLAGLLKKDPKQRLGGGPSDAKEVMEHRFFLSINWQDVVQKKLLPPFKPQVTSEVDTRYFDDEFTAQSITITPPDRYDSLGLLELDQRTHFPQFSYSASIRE

O=C(Nc1ccc(Oc2ccc(F)cc2)cc1)N1CCc2ncccc2[C@H]1c1ccc(F)cc1 [BAY-897]
inactive: residual activity [1] 90% | residual activity [2] 88% | residual activity [3] 96% | residual activity [4] 100% | residual activity [5] 95% | residual activity [6] 93% | residual activity [7] 100% | residual activity [8] 87% | residual activity [9] 95% | residual activity [10] 100% | residual activity [11] 100% | residual activity [12] 90% | residual activity [13] 100% | residual activity [14] 96% | residual activity [15] 86% | residual activity [16] 93% | residual activity [17] 95% | residual activity [18] 85% | residual activity [19] 96% | residual activity [20] 100% | residual activity [21] 86% | residual activity [22] 81% | residual activity [23] 100% | residual activity [24] 98% | residual activity [25] 83% | residual activity [26] 100% | residual activity [27] 94% | residual activity [28] 96% | residual activity [29] 100% | residual activity [30] 75% | residual activity [31] 100% | residual activity [32] 92% | residual activity [33] 91% | residual activity [34] 82% | residual activity [35] 81% | residual activity [36] 84% | residual activity [37] 75% | inhibition [38] -3.56% | inhibition [39] 18.8% | inhibition [40] 25.6%

O=C(Nc1cnc(Oc2ccc(F)cc2)nc1)N1CCc2ncccc2[C@@H]1c1ccc(F)cc1 [BAY-899]
inactive: residual activity [1] 91% | residual activity [2] 100% | residual activity [3] 100% | residual activity [4] 100% | residual activity [5] 89% | residual activity [6] 92% | residual activity [7] 97% | residual activity [8] 93% | residual activity [9] 93% | residual activity [10] 100% | residual activity [11] 100% | residual activity [12] 88% | residual activity [13] 100% | residual activity [14] 96% | residual activity [15] 100% | residual activity [16] 67% | residual activity [17] 93% | residual activity [18] 93% | residual activity [19] 70% | residual activity [20] 84% | residual activity [21] 93% | residual activity [22] 83% | residual activity [23] 77% | residual activity [24] 100% | residual activity [25] 100% | residual activity [26] 100% | residual activity [27] 96% | residual activity [28] 95% | residual activity [29] 97% | residual activity [30] 89% | residual activity [31] 89% | residual activity [32] 76% | residual activity [33] 100% | residual activity [34] 77% | residual activity [35] 87% | residual activity [36] 100% | residual activity [37] 96% | inhibition [38] -8.97% | inhibition [39] 36.4% | inhibition [40] 25.3%
